# From patent publication US5484924A, “Imidazonaphthyridine derivatives” (Kyowa Hakko Kogyo Co., Ltd., priority 1991, dated 1996)
# Test system: tracheae from guinea pigs
# Assay: passive Shultz-Dale reaction (broncho-dilative activity), relaxation of antigen-contracted tracheal strips
# Parameters: species or system Male Hartley guinea pigs
# Details: Cavia porcellus; concentration of 50% relaxation; passively sensitized guinea pig tracheal zig-zag strips, 37° C., antigen (egg white albumin) 1 μg/ml
# Experimental: Effect on passive Shultz-Dale reaction (broncho-dilative activity)
# Male Hartley guinea pigs weighing 350 to 500 g were passively sensitized by intraperitoneal injection of rabbit anti-OA serum prepared in advance by the method of Koda et al. [Folia Pharmacol., Japon 66, 237, (1970)]. After 24 hours, tracheae were removed from guinea pigs and used for experiment. The zig-zag strips of the tracheae were prepared by the method of Emmerson and Mackay [J. Pharm. Pharmacol., 31, 798, (1979)]. The strips were suspended in Krebs-Henseleit solution at 37° C. under aeration of a mixed gas of 95% oxygen and 5% carbon dioxide, and equilibrated for one hour. Then, antigen (egg white albumin) was introduced in the solution (final concentration; 1 μg/ml), and the contraction was measured by isotonic transducer (TD-112s, made by Nihon Kohden K. K., Japan) and recorded on a recorder (Type 3066, made by Yokogawa-Hokushin Denki, K. K. Japan). After the contraction curves reached a plateau, the test compounds were successively added in order to get cumulative concentration-relaxation curves. The concentration of 50% relaxation rate (IC50) was calculated from the regression line, which was obtained from the cumulative concentration-relaxation curves.
structure (smiles),measurement,value
"S=c1c2[nH]cnc2c2cccnc2n1-c1ccccc1 [Compound 1, 5-Phenyl-3H-imidazo[4,5-c][1,8]naphthyridin-4(5H)-thione]",IC50,4.8 µM
